# Experimental data published in patent publication US20260226057A1, “TRICYCLIC AZEPINONE DERIVATIVES AS SYSTEM XC INHIBITORS” (UCB BIOPHARMA SRL, priority 2023, published 2026).
# Key:
# [1] = biological target: T1, System Xc^− cystine/glutamate antiporter (Homo sapiens, UniProt Q9UPY5); experiment: Cystine-induced glutamate release assay; type: cell-based; design: endogenous in cells; host or cells: H4 cells; details: H4 cells, 50 μM L-Cystine, 2 hours, sodium-free HEPES buffer; read-out: Cystine-induced glutamate release assay (range of pIC50) (converted)
# T1 sequence (Q9UPY5 1-501): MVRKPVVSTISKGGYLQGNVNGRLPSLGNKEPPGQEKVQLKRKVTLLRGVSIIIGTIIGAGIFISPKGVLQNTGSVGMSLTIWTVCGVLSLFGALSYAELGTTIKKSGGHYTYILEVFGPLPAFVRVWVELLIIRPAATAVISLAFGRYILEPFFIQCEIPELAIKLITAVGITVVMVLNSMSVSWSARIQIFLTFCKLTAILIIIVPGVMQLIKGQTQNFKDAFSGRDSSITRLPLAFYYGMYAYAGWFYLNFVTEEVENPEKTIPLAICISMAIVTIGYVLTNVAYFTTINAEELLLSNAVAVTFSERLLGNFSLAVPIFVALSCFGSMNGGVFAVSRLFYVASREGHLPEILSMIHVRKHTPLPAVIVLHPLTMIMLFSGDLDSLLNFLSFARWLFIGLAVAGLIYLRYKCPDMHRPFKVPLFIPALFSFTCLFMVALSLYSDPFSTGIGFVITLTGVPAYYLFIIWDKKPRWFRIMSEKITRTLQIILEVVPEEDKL
# T1 sequence (P08195 1-529 partner): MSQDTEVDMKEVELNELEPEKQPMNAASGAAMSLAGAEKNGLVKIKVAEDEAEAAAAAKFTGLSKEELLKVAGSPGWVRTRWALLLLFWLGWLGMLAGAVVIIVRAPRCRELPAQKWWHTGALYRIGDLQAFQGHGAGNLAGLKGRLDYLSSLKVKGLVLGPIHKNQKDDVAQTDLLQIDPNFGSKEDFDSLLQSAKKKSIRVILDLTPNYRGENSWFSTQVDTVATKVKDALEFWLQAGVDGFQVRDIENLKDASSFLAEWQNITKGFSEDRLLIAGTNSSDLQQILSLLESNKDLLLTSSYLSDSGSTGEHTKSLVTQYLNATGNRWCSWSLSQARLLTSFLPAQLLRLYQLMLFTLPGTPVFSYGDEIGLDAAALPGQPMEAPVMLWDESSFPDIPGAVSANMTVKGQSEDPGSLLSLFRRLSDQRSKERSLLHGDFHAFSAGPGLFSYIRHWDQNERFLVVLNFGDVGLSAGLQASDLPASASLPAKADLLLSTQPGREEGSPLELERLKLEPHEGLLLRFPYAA
# Description: (§1) By measuring respectively, the concentration of glutamate released outside the cell and the L-cystine uptaken in the cell, with increasing concentrations of compounds of formula (I) according to the present invention, the efficacy of said compounds to inhibit the System Xc^− function can be evaluated.
# (§2) The efficacy of the compounds to inhibit system Xc^− is represented by measuring the IC50 which corresponds to the concentration of compound necessary to inhibit 50% of the signals from the two control groups; DMSO 1% and Erastin 50 μM in the respective assays. pIC50 values correspond to −log of the IC50 in Molar.
# Measurement of cystine-induced glutamate release indicates levels of glutamate (outside of the cell) that are dependent on system Xc^− antiporter function. Upon the addition of L-Cystine to H4 cells, intracellular glutamate is counter-transported and exported in the supernatant.
# In this assay, the medium is devoid of sodium to prevent the transport of glutamate by sodium-dependent excitatory amino acid transporters (EAATs). H4 cells were plated on 384-well culture plate at 1×10^4 cells/well in Dulbecco's Modified Eagle Medium (DMEM) with L-glutamine, penicillin/streptomycin and 10% fetal bovine serum (all from ThermoFisher Scientific) and incubated in a humidified CO2 incubator at 37° C. After 2 days, cells were washed 4 times with prewarmed sodium-free HEPES buffer (contents in mM: HEPES 10, KCl 5.4, CaCl2 2.5, MgCl2 1, KH2PO4 0.4, D-Glucose 5, Choline chloride 140), pH 7.4. Glutamate release was induced by addition of 50 μM of L-Cystine (Sigma-Aldrich), together with a test compound of Formula (I) at 1% final DMSO concentration. After 2 hours of incubation in the culture incubator, supernatants were transferred to a low-binding polypropylene 384-well plate to determine L-glutamate concentration using Amplex™ Red Glutamic Acid Assay Kit (ThermoFisher Scientific). Briefly, 10 μL of Amplex™ Red working solution was added to 10 μL of the supernatant, then the mixture was incubated for 30 min at 37° C. Fluorescence intensity was measured by EnVision microplate reader (PerkinElmer).
# [2] = biological target: T1, System Xc^− cystine/glutamate antiporter; experiment: [^14C]L-Cystine uptake assay; type: cell-based; details: H4 cells, 15 min preincubation, 1 hour at 37° C., sodium-free HEPES buffer; read-out: [^14C] L-Cystine uptake assay (range of pIC50) (converted)
# Description: as §1, §2
# In this assay, the medium is devoid of sodium to prevent the transport of glutamate by sodium-dependent excitatory amino acid transporters (EAATs). H4 cells were plated on a 96-well CytoStar-T scintillating microplate (PerkinElmer) at 5×10^4 cells/well in the medium described above. After 1 day, cells were washed one time with the sodium-free HEPES buffer and preincubated with test compounds of Formula (I) (1% final DMSO) for 15 min. Uptake was initiated by adding 0.5 μM L-[1,2, 1′,2′-^14C] Cystine (0.02 mCi/mL, PerkinElmer, Waltham, US) and 4.5 μM L-Cystine (Sigma-Aldrich). After 1 hour at 37° C., plates were counted in a MicroBeta^2 microplate counter (PerkinElmer).
SMILES,IC50 [1],IC50 [2]
CC(=O)c1ccc(NC(=O)CN2C(=O)Cc3ncccc3-c3c2cc(N2CC(C)(O)C2)nc3F)cc1 [#27],39.8 to 100 nM,15.8 to 39.8 nM
CC(=O)c1ccc(NC(=O)CN2C(=O)C(C)c3ncc(F)cc3-c3c2cc(CO)nc3F)cc1 (stereo not shown) [#30],100 to 501 nM,100 to 501 nM
CC(=O)c1ccc(NC(=O)CN2C(=O)[C@H](C)c3ncc(F)cc3-c3c2cc(C)nc3F)cc1 [#3],15.8 to 39.8 nM,15.8 to 39.8 nM
CC(=O)c1ccc(NC(=O)CN2C(=O)C(C)c3ncccc3-c3c2cc(N2CC(C)(O)C2)nc3F)cc1 (stereo not shown) [#25],39.8 to 100 nM,15.8 to 39.8 nM
CC(=O)c1ccc(NC(=O)CN2C(=O)C(C)c3ncccc3-c3c2cc(C)nc3F)cc1F (stereo not shown) [#24],39.8 to 100 nM,15.8 to 39.8 nM
"COc1nccc2c1-c1cccnc1C(C)C(=O)N2CC(=O)Nc1ccc(C(C)=O)cc1 (single isomer, unassigned) [#14]",39.8 to 100 nM,15.8 to 39.8 nM
CC(=O)c1ccc(NC(=O)CN2C(=O)C(C)c3cnc(F)cc3-c3c2cc(C)nc3F)cc1 (stereo not shown) [#34],39.8 to 100 nM,39.8 to 100 nM
CC(=O)c1ccc(NC(=O)CN2C(=O)C(C)c3ncccc3-c3c2cc(N2CC(C)(F)C2)nc3F)cc1 (stereo not shown) [#26],100 to 501 nM,15.8 to 39.8 nM
CC(=O)c1ccc(NC(=O)CN2C(=O)C(C)c3ncccc3-c3c2cc(C2(O)CCC2)nc3F)cc1 (stereo not shown) [#29],39.8 to 100 nM,39.8 to 100 nM
"COc1cnc2c(c1)-c1cnc(C)cc1N(CC(=O)Nc1ccc(C(C)=O)cc1)C(=O)C2C (single isomer, unassigned) [#12]",39.8 to 100 nM,39.8 to 100 nM
CC(=O)c1ccc(NC(=O)CN2C(=O)Cc3ncccc3-c3c2cc(N2CC(F)(F)C2)nc3F)cc1 [#22],39.8 to 100 nM,15.8 to 39.8 nM
"COc1cc2c(c(F)n1)-c1cc(F)cnc1C(C)C(=O)N2CC(=O)Nc1ccc(C(C)=O)cc1 (single isomer, unassigned) [#17]",39.8 to 100 nM,< 15.8 nM
"Cc1cc2c(c(F)n1)-c1cc(F)cnc1C(C)C(=O)N2CC(=O)Nc1ccc2c(c1)OCC2=O (single isomer, unassigned) [#18]",39.8 to 100 nM,39.8 to 100 nM
"CC(=O)c1ccc(NC(=O)CN2C(=O)C(C)c3ncccc3-c3c2cc(C)nc3Cl)cc1 (single isomer, unassigned) [#6]",< 15.8 nM,< 15.8 nM
"CC(=O)c1ccc(NC(=O)CN2C(=O)C(C)c3ncccc3-c3c2cc(F)nc3F)cc1 (single isomer, unassigned) [#23]",39.8 to 100 nM,39.8 to 100 nM
CC(=O)c1ccc(NC(=O)CN2C(=O)C(C)c3ncccc3-c3c2cc(C2CCC2)nc3F)cc1 (stereo not shown) [#31],15.8 to 39.8 nM,15.8 to 39.8 nM
CC(=O)c1ccc(NC(=O)CN2C(=O)C(C)c3ncccc3-c3c2cc(N2CC(F)(F)C2)nc3F)cc1 (stereo not shown) [#7],39.8 to 100 nM,< 15.8 nM
CC(=O)c1ccc(NC(=O)CN2C(=O)Cc3ncccc3-c3c2cc(N2CC4(C2)CC4(F)F)nc3Cl)cc1 [#9],100 to 501 nM,39.8 to 100 nM

SMILES,IC50 [1],IC50 [2]
CC(=O)c1ccc(NC(=O)CN2C(=O)C(C)c3nscc3-c3c2cc(C)nc3F)cc1 (stereo not shown) [#28],39.8 to 100 nM,100 to 501 nM
"COc1nc(C)cc2c1-c1cccnc1C(C)C(=O)N2CC(=O)Nc1ccc(C(C)=O)cc1 (single isomer, unassigned) [#13]",15.8 to 39.8 nM,< 15.8 nM
"CC(=O)c1ccc(NC(=O)CN2C(=O)C(C)c3ncc(F)cc3-c3c2cc(C)nc3F)cc1O (single isomer, unassigned) [#33]",< 15.8 nM,< 15.8 nM
CC(=O)c1ccc(NC(=O)CN2C(=O)C(C)c3ncccc3-c3c(F)cc(N4CC(F)C4)cc32)cc1 (stereo not shown) [#35],15.8 to 39.8 nM,< 15.8 nM
"COc1cc2c(cn1)-c1cc(F)cnc1C(C)C(=O)N2CC(=O)Nc1ccc(C(C)=O)cc1 (single isomer, unassigned) [#32]",100 to 501 nM,15.8 to 39.8 nM
Cc1cc2c(c(F)n1)-c1cccnc1[C@@H](C)C(=O)N2CC(=O)Nc1ccc(C(=O)C2CC2)cc1 [#2],100 to 501 nM,100 to 501 nM
"COc1cnc2c(c1)-c1c(cc(C)nc1F)N(CC(=O)Nc1ccc(C(C)=O)cc1)C(=O)C2C (single isomer, unassigned) [#20]",39.8 to 100 nM,15.8 to 39.8 nM
CC(=O)c1ccc(NC(=O)CN2C(=O)[C@H](C)c3ncccc3-c3c2cc(C)nc3F)cc1 [#1],15.8 to 39.8 nM,15.8 to 39.8 nM
"CC(=O)c1ccc(NC(=O)CN2C(=O)C(C)c3ncccc3-c3c2cc(C)nc3F)cc1O (single isomer, unassigned) [#16]",15.8 to 39.8 nM,< 15.8 nM
CCC(=O)c1ccc(NC(=O)CN2C(=O)[C@H](C)c3ncccc3-c3c2cc(C)nc3F)cc1 [#15],39.8 to 100 nM,39.8 to 100 nM
CC(=O)c1ccc(NC(=O)CN2C(=O)C(C)c3ncc(F)cc3-c3cnc(C)cc32)cc1 (stereo not shown) [#4],39.8 to 100 nM,39.8 to 100 nM
CC(=O)c1ccc(NC(=O)CN2C(=O)C(C)c3ncccc3-c3c2cc(N2CC(F)C2)nc3F)cc1 (stereo not shown) [#8],< 15.8 nM,< 15.8 nM
"CC(=O)c1ccc(NC(=O)CN2C(=O)C(C)c3ncc(F)cc3-c3cc(C#N)c(C)cc32)cc1 (single isomer, unassigned) [#19]",15.8 to 39.8 nM,< 15.8 nM
CC(=O)c1ccc(NC(=O)CN2C(=O)[C@H](C)c3ncc(F)cc3-c3c2cc(C)nc3Cl)cc1 [#5],< 15.8 nM,< 15.8 nM
"COc1cc2c(c(F)n1)-c1cccnc1C(C)C(=O)N2CC(=O)Nc1ccc(C(C)=O)cc1 (single isomer, unassigned) [#11]",15.8 to 39.8 nM,15.8 to 39.8 nM
CC(=O)c1ccc(NC(=O)CN2C(=O)Cc3ccccc3-c3c2cc(C)nc3F)cc1 [#10],100 to 501 nM,39.8 to 100 nM
CC(=O)c1ccc(NC(=O)CN2C(=O)Cc3ncccc3-c3c2cc(N2CC(F)C2)nc3F)cc1 [#21],15.8 to 39.8 nM,< 15.8 nM
